The text below walks through data of patent publication US20240308999A1 (priority 2021, published 2024).

The subject of test [1] is DAT / SERT. The conditions noted are these: 1/IC50 at DAT divided by 1/IC50 at SERT; uptake inhibition; cited from earlier work.
Test [2] concerns DAT / SERT. The following applies: neurotransmitter release; cited from earlier work.
For test [3] the following is noted: after 75 or 125 mg MDMA; standard deviation of 1.3 hours; cited from earlier work.
A further test has as its system neuritogenesis. The following applies: Ly et al. 2018, Figure S3, cited from earlier work.
A further test addresses Dopamine transporter (Homo sapiens, UniProt Q01959). The test can be described thus: DAT monoamine transporter uptake assay (Blocker).
The target in test [4] is 5-Hydroxytryptamine (Serotonin) Receptor 2B (Homo sapiens, UniProt P41595). The test can be described thus: 5-HTR2B activity assay (Agonist/Antagonist). Format: cell-based.
The next test deals with T1, human DAT (Homo sapiens, UniProt Q01959).
T1 construct: expressed in transfected cells; host or cells: Chinese hamster ovary (CHO) cells
Put plainly: hDAT release assay ([3H]dopamine release). The format is cell-based.

Test [5] deals with 5-Hydroxytryptamine (Serotonin) Receptor 1B (Homo sapiens, UniProt P28222). The test can be described thus: 5-HTR1B activity assay (Agonist/Antagonist). Format: cell-based.
A further test deals with T2, human SERT (Homo sapiens, UniProt P31645).
T2 construct: expressed in transfected cells; host or cells: Chinese hamster ovary (CHO) cells
The test can be described thus: hSERT release assay ([3H]serotonin release). The format is cell-based.

Test [6] has as its target Norepinephrine transporter (Homo sapiens, UniProt P23975). The test can be described thus: NET monoamine transporter uptake assay (Blocker).
The next test has as its system DAT / NET. The following applies: neurotransmitter release; cited from earlier work.
In test [7] the target is Nicotinic acetylcholine Receptor α4 β2 (Homo sapiens, UniProt P17787+P43681). The format is cell-based. The following applies: nACHR(a4/b2), Blocker mode; positive control; read-out: RC50 (Result Type IC50).
For test [8], the target named is Gamma-aminobutyric acid Receptor A. The format is cell-based. The conditions noted are these: GABAA, Blocker mode; positive control; read-out: RC50 (Result Type IC50).

T1 sequence (Q01959 whole entry): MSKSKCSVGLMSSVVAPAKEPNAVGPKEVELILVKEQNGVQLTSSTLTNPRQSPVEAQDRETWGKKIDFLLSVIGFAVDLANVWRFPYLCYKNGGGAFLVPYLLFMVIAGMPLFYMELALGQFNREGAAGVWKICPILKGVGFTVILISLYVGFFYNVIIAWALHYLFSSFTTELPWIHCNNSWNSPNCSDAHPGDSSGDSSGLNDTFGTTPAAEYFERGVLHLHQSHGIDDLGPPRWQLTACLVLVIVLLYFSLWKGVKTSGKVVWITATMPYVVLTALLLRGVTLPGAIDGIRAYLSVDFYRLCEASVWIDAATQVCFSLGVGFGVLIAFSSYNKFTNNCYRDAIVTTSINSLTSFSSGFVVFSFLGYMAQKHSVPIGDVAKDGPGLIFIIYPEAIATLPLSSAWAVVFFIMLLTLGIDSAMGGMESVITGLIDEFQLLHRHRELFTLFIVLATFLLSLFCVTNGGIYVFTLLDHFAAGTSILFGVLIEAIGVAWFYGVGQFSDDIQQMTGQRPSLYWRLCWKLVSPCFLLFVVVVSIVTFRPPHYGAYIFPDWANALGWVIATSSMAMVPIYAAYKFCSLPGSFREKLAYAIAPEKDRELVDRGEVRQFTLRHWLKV
Chain of Dopamine transporter (Q01959 whole entry): as above
T2 sequence (P31645 whole entry): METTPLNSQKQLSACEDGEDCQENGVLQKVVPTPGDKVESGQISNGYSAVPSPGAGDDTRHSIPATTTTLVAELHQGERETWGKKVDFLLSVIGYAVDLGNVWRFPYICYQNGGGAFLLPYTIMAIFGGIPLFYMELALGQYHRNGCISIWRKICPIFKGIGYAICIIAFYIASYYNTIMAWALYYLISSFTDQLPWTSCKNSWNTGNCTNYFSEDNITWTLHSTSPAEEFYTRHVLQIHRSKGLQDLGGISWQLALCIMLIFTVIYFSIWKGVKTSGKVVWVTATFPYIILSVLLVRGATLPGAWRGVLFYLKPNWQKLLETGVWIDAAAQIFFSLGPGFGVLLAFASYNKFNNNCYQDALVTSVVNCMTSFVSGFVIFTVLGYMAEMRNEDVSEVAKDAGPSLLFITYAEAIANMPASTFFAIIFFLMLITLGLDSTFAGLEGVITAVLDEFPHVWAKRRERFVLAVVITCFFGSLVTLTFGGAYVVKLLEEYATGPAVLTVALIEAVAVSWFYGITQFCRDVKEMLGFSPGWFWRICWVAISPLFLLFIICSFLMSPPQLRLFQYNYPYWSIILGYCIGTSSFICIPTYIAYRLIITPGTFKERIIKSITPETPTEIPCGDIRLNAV
Chain of Norepinephrine transporter (P23975 whole entry): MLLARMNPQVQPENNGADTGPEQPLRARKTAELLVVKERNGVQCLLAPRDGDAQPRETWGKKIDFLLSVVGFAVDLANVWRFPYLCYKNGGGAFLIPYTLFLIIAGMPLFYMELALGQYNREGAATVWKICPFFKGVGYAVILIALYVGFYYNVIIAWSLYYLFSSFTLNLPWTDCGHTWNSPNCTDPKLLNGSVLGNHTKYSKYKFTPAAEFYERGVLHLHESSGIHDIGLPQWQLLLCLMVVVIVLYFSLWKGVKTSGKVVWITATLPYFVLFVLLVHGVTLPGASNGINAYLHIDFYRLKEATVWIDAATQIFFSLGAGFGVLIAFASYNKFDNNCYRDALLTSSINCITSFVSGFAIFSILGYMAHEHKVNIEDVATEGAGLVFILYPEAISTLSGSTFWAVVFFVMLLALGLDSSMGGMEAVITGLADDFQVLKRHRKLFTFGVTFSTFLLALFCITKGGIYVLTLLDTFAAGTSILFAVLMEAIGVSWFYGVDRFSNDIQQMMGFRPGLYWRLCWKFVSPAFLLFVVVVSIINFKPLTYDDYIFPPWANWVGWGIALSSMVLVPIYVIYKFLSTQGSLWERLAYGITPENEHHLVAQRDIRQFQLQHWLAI
Chain of 5-Hydroxytryptamine (Serotonin) Receptor 1B (P28222 whole entry): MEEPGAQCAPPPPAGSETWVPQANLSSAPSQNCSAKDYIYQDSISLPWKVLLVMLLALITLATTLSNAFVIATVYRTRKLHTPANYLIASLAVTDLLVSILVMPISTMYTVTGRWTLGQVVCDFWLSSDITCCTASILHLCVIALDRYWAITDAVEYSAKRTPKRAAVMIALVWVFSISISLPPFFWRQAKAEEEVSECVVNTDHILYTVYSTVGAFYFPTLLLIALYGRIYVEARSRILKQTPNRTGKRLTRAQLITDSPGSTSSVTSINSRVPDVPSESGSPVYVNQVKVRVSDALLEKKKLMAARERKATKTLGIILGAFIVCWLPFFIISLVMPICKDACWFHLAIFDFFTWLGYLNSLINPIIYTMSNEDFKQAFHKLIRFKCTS
Chain of Nicotinic acetylcholine Receptor α4 β2 (P43681 29-627 limits assumed): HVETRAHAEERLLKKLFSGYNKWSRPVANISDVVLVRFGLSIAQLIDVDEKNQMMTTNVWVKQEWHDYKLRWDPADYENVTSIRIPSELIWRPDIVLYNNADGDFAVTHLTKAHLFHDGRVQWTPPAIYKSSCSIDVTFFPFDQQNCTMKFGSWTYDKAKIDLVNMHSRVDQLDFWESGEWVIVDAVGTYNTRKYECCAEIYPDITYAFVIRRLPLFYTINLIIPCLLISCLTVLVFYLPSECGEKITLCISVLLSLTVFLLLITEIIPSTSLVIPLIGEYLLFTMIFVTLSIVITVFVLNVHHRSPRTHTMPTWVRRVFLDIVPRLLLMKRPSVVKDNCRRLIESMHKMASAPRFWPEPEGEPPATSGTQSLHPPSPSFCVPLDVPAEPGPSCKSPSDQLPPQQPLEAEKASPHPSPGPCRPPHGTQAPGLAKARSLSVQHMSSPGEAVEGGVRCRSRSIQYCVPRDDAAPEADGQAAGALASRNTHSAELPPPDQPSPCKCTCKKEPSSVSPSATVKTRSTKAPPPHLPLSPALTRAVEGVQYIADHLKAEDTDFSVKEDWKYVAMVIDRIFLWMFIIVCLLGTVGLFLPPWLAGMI
Chain of Nicotinic acetylcholine Receptor α4 β2 (P17787 26-502): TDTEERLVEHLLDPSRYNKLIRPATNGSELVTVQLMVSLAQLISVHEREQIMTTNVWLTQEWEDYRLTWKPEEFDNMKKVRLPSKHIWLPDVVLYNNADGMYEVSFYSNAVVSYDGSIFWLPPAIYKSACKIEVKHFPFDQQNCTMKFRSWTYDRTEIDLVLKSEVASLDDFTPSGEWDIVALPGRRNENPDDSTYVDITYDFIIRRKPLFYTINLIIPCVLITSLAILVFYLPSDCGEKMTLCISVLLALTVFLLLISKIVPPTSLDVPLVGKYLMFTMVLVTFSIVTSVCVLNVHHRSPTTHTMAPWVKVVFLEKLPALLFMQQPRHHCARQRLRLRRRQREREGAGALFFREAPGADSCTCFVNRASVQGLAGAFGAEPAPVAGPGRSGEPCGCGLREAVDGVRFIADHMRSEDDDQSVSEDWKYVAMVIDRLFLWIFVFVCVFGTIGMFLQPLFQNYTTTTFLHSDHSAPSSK
Chain of 5-Hydroxytryptamine (Serotonin) Receptor 2B (P41595 whole entry): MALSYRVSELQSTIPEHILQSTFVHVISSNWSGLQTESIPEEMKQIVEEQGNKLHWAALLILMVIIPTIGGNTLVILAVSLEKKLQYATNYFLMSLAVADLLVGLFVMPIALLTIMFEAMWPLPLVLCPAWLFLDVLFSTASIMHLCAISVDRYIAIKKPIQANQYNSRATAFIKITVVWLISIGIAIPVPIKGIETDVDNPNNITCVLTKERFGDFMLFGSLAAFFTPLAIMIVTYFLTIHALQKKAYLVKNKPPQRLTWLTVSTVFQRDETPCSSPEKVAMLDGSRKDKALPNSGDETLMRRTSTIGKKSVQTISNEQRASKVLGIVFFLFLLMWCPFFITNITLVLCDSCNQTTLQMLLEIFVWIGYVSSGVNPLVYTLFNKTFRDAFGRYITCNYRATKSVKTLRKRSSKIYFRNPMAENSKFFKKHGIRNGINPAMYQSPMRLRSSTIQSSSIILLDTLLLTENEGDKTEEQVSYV

Regarding `CCNC(C)Cc1ccc2c(c1)OCO2` (stereo not drawn) [MDEA, [1-(2H-1,3-benzodioxol-5-yl)propan-2-yl](ethyl)amine], the “DAT/SERT IC50 ratio” value in the test with DAT / SERT [1] is 3.2. For the same molecule, in the test on DAT / SERT [2], the “DAT/SERT EC50 ratio” value is given as 0.76.

What is called EC50 is the concentration needed to bring the measured effect to its halfway point. As for `CNC(C)Cc1ccc2c(c1)OCO2` (stereo not drawn) [MDMA], in the test with DAT / SERT [1], the “DAT/SERT IC50 ratio” value is 0.08. In test [3], the “Duration of acute therapeutic effects” value is 4.2 h. The “Emax for promoting neuritogenesis relative to ketamine” value with neuritogenesis is recorded as “approximately twice that of ketamine”. For the same molecule, the EC50 with neuritogenesis (read-out: EC50 for promoting neuritogenesis) is 7.41 nM.

As usually defined, the IC50 is the concentration that gives 50% inhibition. Consider `CNC(C)C(=O)c1ccc2ccccn12` (stereo not drawn) [Structure XLX], for which the IC50 against Dopamine transporter was determined as 2410 nM; in test [4], 2140 nM; in test [6], 5690 nM. Besides, the figures for the EC50 (on human DAT; in [5]; at human SERT) were 227 nM, 1130 nM and 109 nM, respectively. Moreover, the “DAT/SERT ratio*” value at human DAT (calculated as (DAT EC50)^−1/(SERT EC50)^−1, larger numbers indicate higher DAT selectivity) was 2.1. For the same molecule, the “Relative potency of release, DAT versus 5-HT” value at human DAT (hMAT release assays) is reported as “more potent at releasing DAT than 5-HT”.

As to `C[C@H](N)Cc1ccccc1` [d-amphetamine, D-amphetamine], the “DAT/NET EC50 ratio” value in the test with DAT / NET was 0.9.

Take `CN[C@@H](C)Cc1ccccc1` [d-methamphetamine]: the “DAT/NET EC50 ratio” value with DAT / NET is listed as 0.5.

For the molecule Dihydro-AY-erythroidine, in test [7], the IC50 came to 682 nM.

Turning to Picrotoxin, the IC50 in [8] came to 2780 nM.
